Assay results published in patent US8741911B2, “Raf inhibitor compounds” (Eli Lilly and Company, priority 2012, dated 2014).
Read-outs that look alike come from different tables or passages of the source.

Assays:
Assay in all cases: CellTiter-Glo proliferation and viability assay
Assay type in all cases: cell-based
Details in all cases: Homo sapiens
22RV1 = system: 22RV1
SK-OV-3 = system: SK-OV-3
NCI-H522 = system: NCI-H522
AsPC-1 = system: AsPC-1

Q: What does the source list for `CNc1ncc2cc(-c3cc(NC(=O)NCCC(C)(C)C)c(F)cc3C)c(C)nc2n1` [Example 1, 1-(3,3-Dimethylbutyl)-3-(2-fluoro-4-methyl-5-(7-methyl-2-(methylamino)pyrido[2,3-d]pyrimidin-6-yl)phenyl)urea]?
A: IC50 (22RV1; read-out: Abs IC50): 1.96 nM; IC50 (22RV1; read-out: Rel IC50): 0.19 nM; IC50 (SK-OV-3; read-out: Abs IC50): > 20 nM; IC50 (SK-OV-3; read-out: Rel IC50): 10.8 nM; IC50 (NCI-H522; read-out: Abs IC50): 4.5 nM; IC50 (NCI-H522; read-out: Rel IC50): 0.22 nM; IC50 (AsPC-1; ASPC1, read-out: Abs IC50): 1.22 nM; IC50 (AsPC-1; ASPC1, read-out: Rel IC50): 0.38 nM
